# Assay results from ChEMBL document CHEMBL3797052 (Eur J Med Chem, 2016).
# System: not listed separately
# Assay: Antiproliferative activity against human BT549 cells assessed as cell growth at 10^-7 M after 48 hrs by sulforhodamine B assay
# Assay type: functional
# Settings: BT-549, 48 h, read-out: Activity
row,SMILES,growth at 0.1 µM
1,CNC(=O)c1cc(Oc2ccc3nc(NC(=O)Nc4cc(C(F)(F)F)cc(C(F)(F)F)c4)sc3c2)ccn1,96%

# System: not listed separately
# Assay: Antiproliferative activity against human NCI-ADR-RES cells assessed as cell growth at 10^-6 M after 48 hrs by sulforhodamine B assay
# Assay type: functional
# Settings: read-out: Activity
row,SMILES,growth at 1 µM
1,CNC(=O)c1cc(Oc2ccc3nc(NC(=O)Nc4cc(C(F)(F)F)cc(C(F)(F)F)c4)sc3c2)ccn1,63%

# System: HT-29
# Assay: Antiproliferative activity against human HT-29 cells assessed as growth inhibition after 48 hrs by sulforhodamine B assay
# Assay type: functional
# Settings: HT-29, 48 h
SMILES,GI50,LC50,TGI
CNC(=O)c1cc(Oc2ccc3nc(NC(=O)Nc4cc(C(F)(F)F)cc(C(F)(F)F)c4)sc3c2)ccn1,1210 nM,6.17 µM,2730 nM

# System: not listed separately
# Assay: Antiproliferative activity against human PC3 cells assessed as cell growth at 10^-6 M after 48 hrs by sulforhodamine B assay
# Assay type: functional
# Settings: PC-3, 48 h, read-out: Activity
row,SMILES,growth at 1 µM
1,CNC(=O)c1cc(Oc2ccc3nc(NC(=O)Nc4cc(C(F)(F)F)cc(C(F)(F)F)c4)sc3c2)ccn1,37%

# System: not listed separately
# Assay: Antiproliferative activity against human OVCAR8 cells assessed as cell growth at 10^-7 M after 48 hrs by sulforhodamine B assay
# Assay type: functional
# Settings: OVCAR-8, 48 h, read-out: Activity
row,SMILES,growth at 0.1 µM
1,CNC(=O)c1cc(Oc2ccc3nc(NC(=O)Nc4cc(C(F)(F)F)cc(C(F)(F)F)c4)sc3c2)ccn1,102%

# System: MDA-MB-231
# Assay: Antiproliferative activity against human MDA-MB-231 cells assessed as cell growth at 10^-4 M after 48 hrs by sulforhodamine B assay
# Assay type: functional
# Settings: MDA-MB-231, 48 h, read-out: Activity
row,SMILES,growth at 100 µM
1,CNC(=O)c1cc(Oc2ccc3nc(NC(=O)Nc4cc(C(F)(F)F)cc(C(F)(F)F)c4)sc3c2)ccn1,-59%

# System: not listed separately
# Assay: Antiproliferative activity against human SF295 cells assessed as growth inhibition after 48 hrs by sulforhodamine B assay
# Assay type: functional
# Settings: SF-295, 48 h
SMILES,GI50,TGI
CNC(=O)c1cc(Oc2ccc3nc(NC(=O)Nc4cc(C(F)(F)F)cc(C(F)(F)F)c4)sc3c2)ccn1,1080 nM,2410 nM

# Same assay, conditions: SF-295, 48 h, read-out: LC50 (the source's name)
row,SMILES,CC50
1,CNC(=O)c1cc(Oc2ccc3nc(NC(=O)Nc4cc(C(F)(F)F)cc(C(F)(F)F)c4)sc3c2)ccn1,5.38 µM

# System: MCF7
# Assay: Antiproliferative activity against human MCF7 cells assessed as growth inhibition after 48 hrs by sulforhodamine B assay
# Assay type: functional
# Settings: MCF7, 48 h
SMILES,GI50,TGI
CNC(=O)c1cc(Oc2ccc3nc(NC(=O)Nc4cc(C(F)(F)F)cc(C(F)(F)F)c4)sc3c2)ccn1,1050 nM,2930 nM

# Same assay, conditions: MCF7, 48 h, read-out: LC50 (the source's name)
row,SMILES,CC50
1,CNC(=O)c1cc(Oc2ccc3nc(NC(=O)Nc4cc(C(F)(F)F)cc(C(F)(F)F)c4)sc3c2)ccn1,8.23 µM

# Molecular target: T1, CYP1A2 (Homo sapiens, UniProt P05177)
# T1 sequence (P05177 whole entry): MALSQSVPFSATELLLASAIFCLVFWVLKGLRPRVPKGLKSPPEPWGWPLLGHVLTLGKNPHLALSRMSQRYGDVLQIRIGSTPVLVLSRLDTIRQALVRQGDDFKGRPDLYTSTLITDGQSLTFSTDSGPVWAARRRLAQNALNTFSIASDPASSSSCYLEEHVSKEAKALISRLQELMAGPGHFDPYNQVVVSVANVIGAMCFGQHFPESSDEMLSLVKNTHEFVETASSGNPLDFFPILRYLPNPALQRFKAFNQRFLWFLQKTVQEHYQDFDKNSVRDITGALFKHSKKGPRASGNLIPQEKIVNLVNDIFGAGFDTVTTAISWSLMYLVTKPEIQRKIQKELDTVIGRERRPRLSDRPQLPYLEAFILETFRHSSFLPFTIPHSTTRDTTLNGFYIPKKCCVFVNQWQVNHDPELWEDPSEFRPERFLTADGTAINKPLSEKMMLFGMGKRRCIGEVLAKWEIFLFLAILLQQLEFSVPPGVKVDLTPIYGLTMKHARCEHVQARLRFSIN
# Assay: Inhibition of recombinant human CYP1A2 assessed as remaining enzyme activity using CYP1A2 blue as substrate at 10 uM after 5 mins in presence of NADP by fluorescence plate reader analysis
# Assay type: ADME
# Settings: recombinant human CYP1A2, probe CYP1A2 blue, read-out: Activity
row,SMILES,"activity at 5 min, 10 µM"
1,CNC(=O)c1cc(Oc2ccc3nc(NC(=O)Nc4cc(C(F)(F)F)cc(C(F)(F)F)c4)sc3c2)ccn1,110%

# System: not listed separately
# Assay: Antiproliferative activity against human OVCAR4 cells assessed as growth inhibition after 48 hrs by sulforhodamine B assay
# Assay type: functional
# Settings: OVCAR-4, 48 h
SMILES,GI50,TGI
CNC(=O)c1cc(Oc2ccc3nc(NC(=O)Nc4cc(C(F)(F)F)cc(C(F)(F)F)c4)sc3c2)ccn1,958 nM,2730 nM

# Same assay, conditions: OVCAR-4, 48 h, read-out: LC50 (the source's name)
row,SMILES,CC50
1,CNC(=O)c1cc(Oc2ccc3nc(NC(=O)Nc4cc(C(F)(F)F)cc(C(F)(F)F)c4)sc3c2)ccn1,7.58 µM

# System: not listed separately
# Assay: Antiproliferative activity against human RPMI8226 cells assessed as cell growth at 10^-6 M after 48 hrs by sulforhodamine B assay
# Assay type: functional
# Settings: RPMI-8226, 48 h, read-out: Activity
row,SMILES,growth at 1 µM
1,CNC(=O)c1cc(Oc2ccc3nc(NC(=O)Nc4cc(C(F)(F)F)cc(C(F)(F)F)c4)sc3c2)ccn1,51%

# System: NCI-H522
# Assay: Antiproliferative activity against human NCI-H522 cells assessed as growth inhibition after 48 hrs by sulforhodamine B assay
# Assay type: functional
# Settings: NCI-H522, 48 h
SMILES,GI50,LC50 (concentration killing 50% of cells),TGI
CNC(=O)c1cc(Oc2ccc3nc(NC(=O)Nc4cc(C(F)(F)F)cc(C(F)(F)F)c4)sc3c2)ccn1,534 nM,8.1 µM,2280 nM

# System: HT-29
# Assay: Antiproliferative activity against human HT-29 cells assessed as cell growth at 10^-6 M after 48 hrs by sulforhodamine B assay
# Assay type: functional
# Settings: HT-29, 48 h, read-out: Activity
row,SMILES,growth at 1 µM
1,CNC(=O)c1cc(Oc2ccc3nc(NC(=O)Nc4cc(C(F)(F)F)cc(C(F)(F)F)c4)sc3c2)ccn1,61%

# System: not listed separately
# Assay: Antiproliferative activity against human IGROV1 cells assessed as growth inhibition after 48 hrs by sulforhodamine B assay
# Assay type: functional
# Settings: IGROV-1, 48 h
SMILES,GI50,TGI
CNC(=O)c1cc(Oc2ccc3nc(NC(=O)Nc4cc(C(F)(F)F)cc(C(F)(F)F)c4)sc3c2)ccn1,1250 nM,3.16 µM

# Same assay, conditions: IGROV-1, 48 h, read-out: LC50 (the source's name)
row,SMILES,CC50
1,CNC(=O)c1cc(Oc2ccc3nc(NC(=O)Nc4cc(C(F)(F)F)cc(C(F)(F)F)c4)sc3c2)ccn1,8.01 µM

# System: not listed separately
# Assay: Antiproliferative activity against human UO31 cells assessed as growth inhibition after 48 hrs by sulforhodamine B assay
# Assay type: functional
# Settings: UO-31, 48 h
SMILES,GI50,TGI
CNC(=O)c1cc(Oc2ccc3nc(NC(=O)Nc4cc(C(F)(F)F)cc(C(F)(F)F)c4)sc3c2)ccn1,1260 nM,2680 nM

# Same assay, conditions: UO-31, 48 h, read-out: LC50 (the source's name)
row,SMILES,CC50
1,CNC(=O)c1cc(Oc2ccc3nc(NC(=O)Nc4cc(C(F)(F)F)cc(C(F)(F)F)c4)sc3c2)ccn1,5.71 µM

# System: not listed separately
# Assay: Antiproliferative activity against human SW620 cells assessed as cell growth at 10^-7 M after 48 hrs by sulforhodamine B assay
# Assay type: functional
# Settings: SW-620, 48 h, read-out: Activity
row,SMILES,growth at 0.1 µM
1,CNC(=O)c1cc(Oc2ccc3nc(NC(=O)Nc4cc(C(F)(F)F)cc(C(F)(F)F)c4)sc3c2)ccn1,113%

# System: not listed separately
# Assay: Antiproliferative activity against human OVCAR4 cells assessed as cell growth at 10^-7 M after 48 hrs by sulforhodamine B assay
# Assay type: functional
# Settings: OVCAR-4, 48 h, read-out: Activity
row,SMILES,growth at 0.1 µM
1,CNC(=O)c1cc(Oc2ccc3nc(NC(=O)Nc4cc(C(F)(F)F)cc(C(F)(F)F)c4)sc3c2)ccn1,94%

# System: not listed separately
# Assay: Antiproliferative activity against human LOXIMVI cells assessed as cell growth at 10^-8 M after 48 hrs by sulforhodamine B assay
# Assay type: functional
# Settings: LOX IMVI, read-out: Activity
row,SMILES,growth at 0.01 µM
1,CNC(=O)c1cc(Oc2ccc3nc(NC(=O)Nc4cc(C(F)(F)F)cc(C(F)(F)F)c4)sc3c2)ccn1,93%

# System: not listed separately
# Assay: Antiproliferative activity against human SNB19 cells assessed as cell growth at 10^-4 M after 48 hrs by sulforhodamine B assay
# Assay type: functional
# Settings: SNB-19, 48 h, read-out: Activity
row,SMILES,growth at 100 µM
1,CNC(=O)c1cc(Oc2ccc3nc(NC(=O)Nc4cc(C(F)(F)F)cc(C(F)(F)F)c4)sc3c2)ccn1,-45%

# System: not listed separately
# Assay: Antiproliferative activity against human HL-60(TB) cells assessed as growth inhibition after 48 hrs by sulforhodamine B assay
# Assay type: functional
# Settings: HL-60, 48 h
SMILES,GI50,TGI
CNC(=O)c1cc(Oc2ccc3nc(NC(=O)Nc4cc(C(F)(F)F)cc(C(F)(F)F)c4)sc3c2)ccn1,1600 nM,4.17 µM

# Same assay, conditions: HL-60, 48 h, read-out: LC50 (the source's name)
row,SMILES,CC50
1,CNC(=O)c1cc(Oc2ccc3nc(NC(=O)Nc4cc(C(F)(F)F)cc(C(F)(F)F)c4)sc3c2)ccn1,20.4 µM

# System: SN12C
# Assay: Antiproliferative activity against human SN12C cells assessed as cell growth at 10^-6 M after 48 hrs by sulforhodamine B assay
# Assay type: functional
# Settings: read-out: Activity
row,SMILES,growth at 1 µM
1,CNC(=O)c1cc(Oc2ccc3nc(NC(=O)Nc4cc(C(F)(F)F)cc(C(F)(F)F)c4)sc3c2)ccn1,80%

# System: MCF7
# Assay: Antiproliferative activity against human MCF7 cells assessed as cell growth at 10^-6 M after 48 hrs by sulforhodamine B assay
# Assay type: functional
# Settings: MCF7, 48 h, read-out: Activity
row,SMILES,growth at 1 µM
1,CNC(=O)c1cc(Oc2ccc3nc(NC(=O)Nc4cc(C(F)(F)F)cc(C(F)(F)F)c4)sc3c2)ccn1,52%

# System: NCI-H460
# Assay: Antiproliferative activity against human NCI-H460 cells assessed as cell growth at 10^-7 M after 48 hrs by sulforhodamine B assay
# Assay type: functional
# Settings: NCI-H460, 48 h, read-out: Activity
row,SMILES,growth at 0.1 µM
1,CNC(=O)c1cc(Oc2ccc3nc(NC(=O)Nc4cc(C(F)(F)F)cc(C(F)(F)F)c4)sc3c2)ccn1,108%

# System: not listed separately
# Assay: Antiproliferative activity against human SKOV3 cells assessed as cell growth at 10^-6 M after 48 hrs by sulforhodamine B assay
# Assay type: functional
# Settings: SK-OV-3, 48 h, read-out: Activity
row,SMILES,growth at 1 µM
1,CNC(=O)c1cc(Oc2ccc3nc(NC(=O)Nc4cc(C(F)(F)F)cc(C(F)(F)F)c4)sc3c2)ccn1,72%

# System: M14
# Assay: Antiproliferative activity against human M14 cells assessed as growth inhibition after 48 hrs by sulforhodamine B assay
# Assay type: functional
# Settings: M14, 48 h
SMILES,GI50,TGI
CNC(=O)c1cc(Oc2ccc3nc(NC(=O)Nc4cc(C(F)(F)F)cc(C(F)(F)F)c4)sc3c2)ccn1,1500 nM,3.22 µM

# Same assay, conditions: M14, 48 h, read-out: LC50 (the source's name)
row,SMILES,CC50
1,CNC(=O)c1cc(Oc2ccc3nc(NC(=O)Nc4cc(C(F)(F)F)cc(C(F)(F)F)c4)sc3c2)ccn1,6.9 µM

# System: SK-MEL-28
# Assay: Antiproliferative activity against human SK-MEL-28 cells assessed as cell growth at 10^-7 M after 48 hrs by sulforhodamine B assay
# Assay type: functional
# Settings: SK-MEL-28, 48 h, read-out: Activity
row,SMILES,growth at 0.1 µM
1,CNC(=O)c1cc(Oc2ccc3nc(NC(=O)Nc4cc(C(F)(F)F)cc(C(F)(F)F)c4)sc3c2)ccn1,96%

# System: not listed separately
# Assay: Antiproliferative activity against human PC3 cells assessed as cell growth at 10^-8 M after 48 hrs by sulforhodamine B assay
# Assay type: functional
# Settings: PC-3, 48 h, read-out: Activity
row,SMILES,growth at 0.01 µM
1,CNC(=O)c1cc(Oc2ccc3nc(NC(=O)Nc4cc(C(F)(F)F)cc(C(F)(F)F)c4)sc3c2)ccn1,101%

# System: not listed separately
# Assay: Antiproliferative activity against human SF539 cells assessed as cell growth at 10^-4 M after 48 hrs by sulforhodamine B assay
# Assay type: functional
# Settings: SF-539, 48 h, read-out: Activity
row,SMILES,growth at 100 µM
1,CNC(=O)c1cc(Oc2ccc3nc(NC(=O)Nc4cc(C(F)(F)F)cc(C(F)(F)F)c4)sc3c2)ccn1,-77%

# System: not listed separately
# Assay: Antiproliferative activity against human UACC62 cells assessed as cell growth at 10^-6 M after 48 hrs by sulforhodamine B assay
# Assay type: functional
# Settings: UACC-62, 48 h, read-out: Activity
row,SMILES,growth at 1 µM
1,CNC(=O)c1cc(Oc2ccc3nc(NC(=O)Nc4cc(C(F)(F)F)cc(C(F)(F)F)c4)sc3c2)ccn1,37%
